# According to patent US20020035061A1, “COMPOSITIONS AND METHODS FOR TREATING INFECTIONS USING CATIONIC PEPTIDES ALONE OR IN COMBINATION WITH ANTIBIOTICS” (priority 1996, published 2002):
# Like-named read-outs stand apart in the source and are kept apart here.
# Assays:
# [1] = test system: mammalian red blood cells; details: 37° C., 1 hour
# Description: Candidate cationic peptides may be further tested for their toxicity to normal mammalian cells. An exemplary assay is a red blood cell (RBC) (erythrocyte) hemolysis assay. Briefly, in this assay, red blood cells are isolated from whole blood, typically by centrifugation, and washed free of plasma components. A 5% (v/v) suspension of erythrocytes in isotonic saline is incubated with different concentrations of peptide analogue. […] After incubation for approximately 1 hour at 37° C., the cells are centrifuged, and the absorbance of the supernatant at 540 nm is determined. A relative measure of lysis is determined by comparison to absorbance after complete lysis of erythrocytes using NH4Cl or equivalent (establishing a 100% value). A peptide with <10% lysis at 100 μg/ml is suitable. Preferably, there is <5% lysis at 100 μg/ml. Such peptides that are not lytic, or are only moderately lytic, are desirable and suitable for further screening.
# Cationic peptides are tested for toxicity towards eukaryotic cells by measuring the extent of lysis of mammalian red blood cells (RBC). Briefly, in this assay, red blood cells are separated from whole blood by centrifugation and washed free of plasma components. A 5% (v/v) washed red blood cell suspension is prepared in isotonic saline. An aliquot of peptide in formulation is then added and mixed in. After incubation at 37° C. for 1 hour with constant agitation, the solution is centrifuged and the supernatant measured for absorbance at 540 nm to detect released hemoglobin.
# A combination of cationic peptide and antibiotic agent is tested for toxicity towards eukaryotic cells by measuring the extent of lysis of mammalian red blood cells. Briefly, red blood cells are separated from whole blood by centrifugation, washed free of plasma components, and resuspended to a 5% (v/v) suspension in isotonic saline. […] Following incubation with constant agitation at 37° C. for 1 hour, the solution is centrifuged, and the absorbance of the supernatant is measured at 540 nm, which detects released hemoglobin. […]
# S. marcescens = type: cell-based
# K. pneumoniae = type: cell-based
# S. maltophilia = type: cell-based
# S. aureus = type: cell-based; details: for Peptide MIC values: agarose dilution
# S. epidermidis = type: cell-based
# E. coli = type: cell-based; details: for Peptide MIC values: agarose dilution
# E. cloacae = type: cell-based
# E. faecium = type: cell-based
# S. pneumoniae = assay: Agarose dilution assay (MIC); type: cell-based; details: for Peptide MIC values: agarose dilution
# P. aeruginosa = type: cell-based; details: for Peptide MIC values: agarose dilution
# [2] = test system: MSSA (Smith, ATCC # 19640); assay: In vivo efficacy, MSSA infection; set-up: species or system S. aureus; details: mice, ip, formulation D, below 14.5 mg/kg
# A. calcoaceticus = type: cell-based
# [3] = test system: E. coli strain ML-35 inner membrane; type: cell-based; details: cells pre-incubated with valinomycin
# P. mirabilis = assay: Agarose dilution assay (MIC); type: cell-based; details: P. mirabilis strain PM002
# E. faecalis = type: cell-based; details: E. faecalis strain EFS002
# S. pyogenes = assay: Agarose dilution assay (MIC); type: cell-based; details: S. pyogenes strain SPY005
# [4] = test system: microorganisms with acquired resistance; assay: microbe, parasite or virus in culture; type: cell-based
# H. influenzae = assay: Agarose dilution assay (MIC); type: cell-based; details: H. influenzae strain HIN002
# bacterial isolates = assay: microbe, parasite or virus in culture; type: cell-based
# [5] = A. baumannii ABI001, Tobramycin section
# [6] = A. calcoaceticus 3, Piperacillin section
# [7] = P. aeruginosa 15, Piperacillin section
# [8] = P. aeruginosa PA008, Tobramycin section
# [9] = P. aeruginosa PA025, Tobramycin section
# [10] = S. marcescens SB1, Piperacillin section
# [11] = peptide + Piperacillin, A. calcoaceticus 3
# [12] = peptide + Piperacillin, P. aeruginosa 15
# [13] = peptide + Piperacillin, S. marcescens SB1
# [14] = peptide + Tobramycin, A. baumannii ABI001
# [15] = peptide + Tobramycin, P. aeruginosa PA008
# [16] = peptide + Tobramycin, P. aeruginosa PA025
compound,measurement,setting,value
CC[C@H](C)[C@H](NC(=O)CNC(=O)[C@@H](NC(=O)[C@H](CCCCN)NC(=O)[C@H](CCCCN)NC(=O)[C@H](Cc1ccccc1)NC(=O)[C@H](CC(C)C)NC(=O)[C@H](CCCCN)NC(=O)[C@H](Cc1c[nH]c2ccccc12)NC(=O)[C@@H](N)CCCCN)[C@@H](C)CC)C(=O)NCC(=O)N[C@@H](C)C(=O)N[C@H](C(=O)N[C@@H](CC(C)C)C(=O)N[C@@H](CCCCN)C(=O)N[C@H](C(=O)N[C@@H](CC(C)C)C(=O)N[C@H](C(=O)N[C@H](C(=O)NCC(=O)N[C@@H](CC(C)C)C(=O)N1CCC[C@H]1C(=O)N[C@@H](C)C(=O)N[C@@H](CC(C)C)C(=O)N[C@H](C(=O)N[C@@H](CO)C(=O)O)[C@@H](C)CC)[C@@H](C)O)[C@@H](C)O)C(C)C)C(C)C [MBI 27],% Lysis,[1],2.7%
ILPWKWPWWPWRR [MBI 10CN],MIC,S. marcescens; S. marcescens SMS004,>128 µg/mL
same,Peptide MIC values,"S. marcescens; agarose dilution, S. marcescens SM82",>128 µg/mL
same,MIC,K. pneumoniae; K. pneumoniae KP002,64 µg/mL
same,MIC,S. maltophilia; S. maltophilia SMA002,64 µg/mL
same,MIC,S. aureus; S. aureus SA003,2 µg/mL
same,Peptide MIC values,S. aureus; S. aureus MRSA9,1 µg/mL
same,Peptide MIC values,S. aureus; S. aureus MRSA13,4 µg/mL
same,Peptide MIC values,S. aureus; S. aureus MRSA17,2 µg/mL
same,MIC,S. epidermidis; S. epidermidis SE010,4 µg/mL
same,MIC,E. coli; E. coli ECO001,32 µg/mL
same,MIC,E. coli; E. coli SBECO2,16 µg/mL
same,Peptide MIC values,E. coli; E. coli ATCC 25922,16 µg/mL
same,Peptide MIC values,E. coli; E. coli NCTC 10418,8 µg/mL
same,MIC,E. cloacae; E. cloacae ECL007,>128 µg/mL
same,MIC,E. faecium; E. faecium EFM003,2 µg/mL
same,Peptide MIC values,E. faecium; agarose dilution,4 µg/mL
same,Peptide MIC values,S. pneumoniae; S. pneumoniae 406LE8,>128 µg/mL
same,Peptide MIC values,S. pneumoniae; S. pneumoniae 60120,64 µg/mL
same,Peptide MIC values,S. pneumoniae; S. pneumoniae ATCC 49619,32 µg/mL
same,MIC,P. aeruginosa; P. aeruginosa PA002,>128 µg/mL
same,Peptide MIC values,P. aeruginosa; P. aeruginosa ATCC 27853,>128 µg/mL
same,Peptide MIC values,P. aeruginosa; P. aeruginosa NCTC 10662,>128 µg/mL
same,survival,[2],clear dose-dependent survival
same,MIC,A. calcoaceticus; A. calcoaceticus AC001,64 µg/mL
same,ONPG hydrolysis diminished compared to no pre-incubation,[3],approximately 50%
ILRRVJPWWPWRRR [MBI 11B9CN],MIC,S. marcescens; S. marcescens strain SMS003,>128 µg/mL
same,MIC,K. pneumoniae; K. pneumoniae strain KP001,32 µg/mL
same,MIC,S. maltophilia; S. maltophilia strain SMA002,32 µg/mL
same,MIC,P. mirabilis,>128 µg/mL
same,MIC,S. aureus; S. aureus strain SA010,4 µg/mL
same,MIC,E. faecalis,8 µg/mL
same,MIC,S. pyogenes,16 µg/mL
same,MIC,S. epidermidis; S. epidermidis strain SE010,2 µg/mL
same,MIC,E. coli; E. coli strain ECO005,8 µg/mL
same,Peptide MIC + Tobramycin,[4]; A. baumannii ABI001,8 µg/mL
same,Tobramycin MIC + Peptide,[4]; A. baumannii ABI001,4 µg/mL
same,Peptide MIC Alone,[4]; [5],32 µg/mL
same,Peptide MIC + Piperacillin,[4]; A. calcoaceticus 3,16 µg/mL
same,Piperacillin MIC + Peptide,[4]; A. calcoaceticus 3,16 µg/mL
same,Peptide MIC Alone,[4]; [6],32 µg/mL
same,Peptide MIC + Tobramycin,[4]; E. coli EC0006,8 µg/mL
same,Tobramycin MIC + Peptide,[4]; E. coli EC0006,4 µg/mL
same,Peptide MIC Alone,"[4]; E. coli EC0006, Tobramycin section",32 µg/mL
same,Peptide MIC + Piperacillin,[4]; P. aeruginosa 12,64 µg/mL
same,Piperacillin MIC + Peptide,[4]; P. aeruginosa 12,64 µg/mL
same,Peptide MIC Alone,"[4]; P. aeruginosa 12, Piperacillin section",128 µg/mL
same,Peptide MIC + Piperacillin,[4]; P. aeruginosa 15,64 µg/mL
same,Piperacillin MIC + Peptide,[4]; P. aeruginosa 15,64 µg/mL
same,Peptide MIC Alone,[4]; [7],>128 µg/mL
same,Peptide MIC + Tobramycin,[4]; P. aeruginosa PA008,64 µg/mL
same,Tobramycin MIC + Peptide,[4]; P. aeruginosa PA008,0.125 µg/mL
same,Peptide MIC Alone,[4]; [8],128 µg/mL
same,Peptide MIC + Tobramycin,[4]; P. aeruginosa PA025,64 µg/mL
same,Tobramycin MIC + Peptide,[4]; P. aeruginosa PA025,2 µg/mL
same,Peptide MIC Alone,[4]; [9],128 µg/mL
same,Peptide MIC + Piperacillin,[4]; S. maltophilia 2,16 µg/mL
same,Piperacillin MIC + Peptide,[4]; S. maltophilia 2,16 µg/mL
same,Peptide MIC Alone,"[4]; S. maltophilia 2, Piperacillin section",32 µg/mL
same,Peptide MIC + Tobramycin,[4]; S. maltophilia SMA027,32 µg/mL
same,Tobramycin MIC + Peptide,[4]; S. maltophilia SMA027,4 µg/mL
same,Peptide MIC Alone,"[4]; S. maltophilia SMA027, Tobramycin section",>128 µg/mL
same,Peptide MIC + Tobramycin,[4]; S. maltophilia SMA031,32 µg/mL
same,Tobramycin MIC + Peptide,[4]; S. maltophilia SMA031,4 µg/mL
same,Peptide MIC Alone,"[4]; S. maltophilia SMA031, Tobramycin section",>128 µg/mL
same,Peptide MIC + Piperacillin,[4]; S. marcescens SB1,2 µg/mL
same,Piperacillin MIC + Peptide,[4]; S. marcescens SB1,16 µg/mL
same,Peptide MIC Alone,[4]; [10],>128 µg/mL
same,FIC,[4]; [11],0.75
same,FIC,"[4]; peptide + Piperacillin, P. aeruginosa 12",0.75
same,FIC,[4]; [12],0.50
same,FIC,"[4]; peptide + Piperacillin, S. maltophilia 2",0.75
same,FIC,[4]; [13],0.26
same,FIC,[4]; [14],0.50
same,FIC,"[4]; peptide + Tobramycin, E. coli EC0006",0.75
same,FIC,[4]; [15],0.50
same,FIC,[4]; [16],0.56
same,FIC,"[4]; peptide + Tobramycin, S. maltophilia SMA027",0.63
same,FIC,"[4]; peptide + Tobramycin, S. maltophilia SMA031",0.19
same,MIC,H. influenzae,>128 µg/mL
same,MIC,E. cloacae; E. cloacae strain ECL007,>128 µg/mL
same,MIC,E. faecium; E. faecium strain EFM002,4 µg/mL
same,MIC,S. pneumoniae; S. pneumoniae strain SBSPN2,>128 µg/mL
same,MIC,S. pneumoniae; S. pneumoniae strain SPN044,>128 µg/mL
same,MIC,P. aeruginosa; P. aeruginosa strain PA004,128 µg/mL
same,Peptide MIC + Tobramycin,bacterial isolates; A. baumannii ABI001,8 µg/mL
same,Tobramycin MIC + Peptide,bacterial isolates; A. baumannii ABI001,4 µg/mL
same,Peptide MIC Alone,bacterial isolates; [5],32 µg/mL
same,Peptide MIC + Piperacillin,bacterial isolates; A. calcoaceticus 3,2 µg/mL
same,Piperacillin MIC + Peptide,bacterial isolates; A. calcoaceticus 3,32 µg/mL
same,Peptide MIC Alone,bacterial isolates; [6],32 µg/mL
same,Peptide MIC + Tobramycin,bacterial isolates; B. cepacia BC002,32 µg/mL
same,Tobramycin MIC + Peptide,bacterial isolates; B. cepacia BC002,64 µg/mL
same,Peptide MIC Alone,"bacterial isolates; B. cepacia BC002, Tobramycin section",>128 µg/mL
same,Peptide MIC + Piperacillin,bacterial isolates; H. influenzae 3,0.125 µg/mL
same,Piperacillin MIC + Peptide,bacterial isolates; H. influenzae 3,0.25 µg/mL
same,Peptide MIC Alone,"bacterial isolates; H. influenzae 3, Piperacillin section",>128 µg/mL
same,Peptide MIC + Piperacillin,bacterial isolates; H. influenzae SB1,0.125 µg/mL
same,Piperacillin MIC + Peptide,bacterial isolates; H. influenzae SB1,0.25 µg/mL
same,Peptide MIC Alone,"bacterial isolates; H. influenzae SB1, Piperacillin section",>128 µg/mL
same,Peptide MIC + Piperacillin,bacterial isolates; P. aeruginosa 15,64 µg/mL
same,Piperacillin MIC + Peptide,bacterial isolates; P. aeruginosa 15,64 µg/mL
same,Peptide MIC Alone,bacterial isolates; [7],>128 µg/mL
same,Peptide MIC + Piperacillin,bacterial isolates; P. aeruginosa 23,0.5 µg/mL
same,Piperacillin MIC + Peptide,bacterial isolates; P. aeruginosa 23,16 µg/mL
same,Peptide MIC Alone,"bacterial isolates; P. aeruginosa 23, Piperacillin section",64 µg/mL
same,Peptide MIC + Tobramycin,bacterial isolates; P. aeruginosa PA008,64 µg/mL
same,Tobramycin MIC + Peptide,bacterial isolates; P. aeruginosa PA008,0.125 µg/mL
same,Peptide MIC Alone,bacterial isolates; [8],128 µg/mL
same,Peptide MIC + Tobramycin,bacterial isolates; P. aeruginosa PA025,64 µg/mL
same,Tobramycin MIC + Peptide,bacterial isolates; P. aeruginosa PA025,2 µg/mL
same,Peptide MIC Alone,bacterial isolates; [9],128 µg/mL
same,Peptide MIC + Piperacillin,bacterial isolates; S. aureus 19 MRSA,1 µg/mL
same,Piperacillin MIC + Peptide,bacterial isolates; S. aureus 19 MRSA,16 µg/mL
same,Peptide MIC Alone,"bacterial isolates; S. aureus 19 MRSA, Piperacillin section",4 µg/mL
same,Peptide MIC + Piperacillin,bacterial isolates; S. aureus SB2MRSA,1 µg/mL
same,Piperacillin MIC + Peptide,bacterial isolates; S. aureus SB2MRSA,8 µg/mL
same,Peptide MIC Alone,"bacterial isolates; S. aureus SB2MRSA, Piperacillin section",2 µg/mL
same,Peptide MIC + Piperacillin,bacterial isolates; S. maltophilia 5,64 µg/mL
same,Piperacillin MIC + Peptide,bacterial isolates; S. maltophilia 5,64 µg/mL
same,Peptide MIC Alone,"bacterial isolates; S. maltophilia 5, Piperacillin section",>128 µg/mL
same,Peptide MIC + Piperacillin,bacterial isolates; S. maltophilia 13,32 µg/mL
same,Piperacillin MIC + Peptide,bacterial isolates; S. maltophilia 13,64 µg/mL
same,Peptide MIC Alone,"bacterial isolates; S. maltophilia 13, Piperacillin section",>128 µg/mL
same,Peptide MIC + Tobramycin,bacterial isolates; S. maltophilia SMA029,16 µg/mL
same,Tobramycin MIC + Peptide,bacterial isolates; S. maltophilia SMA029,4 µg/mL
same,Peptide MIC Alone,"bacterial isolates; S. maltophilia SMA029, Tobramycin section",>128 µg/mL
same,Peptide MIC + Piperacillin,bacterial isolates; S. marcescens SB1,2 µg/mL
same,Piperacillin MIC + Peptide,bacterial isolates; S. marcescens SB1,16 µg/mL
same,Peptide MIC Alone,bacterial isolates; [10],>128 µg/mL
same,FIC,bacterial isolates; [11],0.56
same,FIC,"bacterial isolates; peptide + Piperacillin, H. influenzae 3",0.50
same,FIC,"bacterial isolates; peptide + Piperacillin, H. influenzae SB1",0.50
same,FIC,bacterial isolates; [12],0.50
same,FIC,"bacterial isolates; peptide + Piperacillin, P. aeruginosa 23",0.13
same,FIC,"bacterial isolates; peptide + Piperacillin, S. aureus 19 MRSA",0.38
same,FIC,"bacterial isolates; peptide + Piperacillin, S. aureus SB2MRSA",0.56
same,FIC,"bacterial isolates; peptide + Piperacillin, S. maltophilia 5",0.50
same,FIC,"bacterial isolates; peptide + Piperacillin, S. maltophilia 13",0.38
same,FIC,bacterial isolates; [13],0.26
same,FIC,bacterial isolates; [14],0.50
same,FIC,"bacterial isolates; peptide + Tobramycin, B. cepacia BC002",0.38
same,FIC,bacterial isolates; [15],0.50
same,FIC,bacterial isolates; [16],0.56
same,FIC,"bacterial isolates; peptide + Tobramycin, S. maltophilia SMA029",0.13
same,MIC,A. calcoaceticus; A. calcoaceticus strain AC002,4 µg/mL
